Read-outs that look alike come from different tables or passages of the source.
Key:
[1] = test system: frozen sperms of C57BL/6J mice; assay: In vitro fertilization after sperm pre-incubation with MBCD and/or glutathione; format: cell-based, mouse; conditions: for number of 2-cell stage embryo(%) / number of 2-cell stage embryo: sperm pre-incubation MBCD −
Experimental: A sperm suspension is pre-incubated in 90 μl of a TYH culture medium at 37° C. for 30 minutes, and under a stereomicroscope, sperms showing motility are collected, avoiding nonmotile sperms, and used for fertilization. The pre-incubated sperm suspension (10 μl) is added to 90 μl of an HTF culture medium (±glutathione) into which cumulus-oocyte complexes (COCs) have been previously introduced (insemination), and these are co-incubated in an incubator for 5 to 6 hours (37° C., 5% CO2), thereby performing fertilization. Thereafter, the ovum is washed with drops of new HTF, and the ovum is observed. Those judged to parthenogenetic (only one pronucleus is recognized in ooplasm) are excluded, and on the following day (24 hours after insemination), only 2-cell stage embryos are selected, and fertilization rate is determined according to the following formula. In vitro fertilization rate (%)=(number of 2-cell stage embryo)/(number of 2-cell stage embryo+number of unfertilized ovum)×100
The TYH culture medium used for pre-incubation of sperms was prepared according to the above-described composition excepting that polyvinyl alcohol (1.0 mg/ml, available from SIGMA) was used instead of bovine serum albumin, and methyl-β-cyclodextrin (0.75 mM, available from SIGMA) was added. Further, the concentration of glutathione in the TYH culture medium was 1 mM, preparation was carried out in the same manner as in Example 1, and glutathione was added to the TYH culture medium directly before use. The influence on fertilization rate was compared among those containing methyl-β-cyclodextrin, those containing glutathione and those containing both compounds.
Fertilization was conducted with 90 μl of an HTF culture medium (in the case of addition of glutathione, the concentration was 1 mM) containing cumulus-oocyte complexes (COCs), in the same manner as in Example 1 (IVF/glutathione in table). As the sperm, frozen sperms of C57BL/6J mice were used, and processed according to FIG. 1. Thawed sperms were pre-incubated in a TYH culture medium (±glutathione, ±methyl-β-cyclodextrin) at 37° C. for 30 minutes, and sperms showing motility were collected and used for fertilization. The experiment was conducted five times.

[2] = test system: 2-cell stage embryos transplanted into female mice; conditions: fertilization and incubation in HTF with 1 mM glutathione; frozen C57BL/6J sperms
Source text: As the receptive female, ICR mice are used, and on the day before transplantation, external genitals are observed and those in the proestrus stage are selected and allowed to live together with vasoligated males. On the following day, those showing vaginal plug are used as the receptive female (on day 1 of pseudopregnancy). The skin and abdominal wall of the anesthetized receptive female are incised, and part of ovary, oviduct and uterus is exposed to the outside of the body through the incised portion, and fat adhered to ovary is fixed by a clamp. A 200 μl drop for transplantation is produced at the center of a dish, and embryos to be transplanted (20/individual) are transferred into the drop for transplantation. Next, 10 embryos are sucked together with a small amount of an incubation solution into a transplantation capillary. About ½ to ⅔ of the circumference of oviduct is incised, and the capillary containing embryos is inserted through the incised portion toward ampulla of oviduct and embryos are transplanted. Also into the opposite oviduct, embryos are transplanted by the same operation procedure.
The offspring rate (implanting rate) after embryo transplantation is determined according to the following formula. Offspring development rate (%)=(number of offspring)/(number of transplanted embryo)×100 […]

[3] = test system: mouse frozen unfertilized ovums
Experimental: According to an ordinary method, mouse frozen unfertilized ovums were prepared using 8-week old female mice.

[4] = test system: zona pellucida of a mouse unfertilized ovum; assay: Swelling of zona pellucida (area in zona pellucida) of unfertilized ovum; format: cell-based; conditions: 37° C., 6 hours
Experimental: Further, the influence of glutathione on swelling of zona pellucida was confirmed. […] Preparation of ovum” were treated with HTF culture media containing glutathione at various concentration at 37° C. for 6 hours, then, the area in zona pellucida was photographed under a microscope and measured by an image analysis software. The conditions of zona pellucida at glutathione concentrations of 0 mM, 1 mM, 2 mM and 10 mM were observed by an invert microscope.
The influence of other reducing agents (DTT, ascorbic acid (VC) and epicatechin (EC)) exerted on thinning and swelling of zona pellucida was confirmed in the same manner as in Example 2. The extent of swelling of the zona pellucida of an unfertilized ovum by the concentration of each reducing agent was photographed under a microscope, and determined according to the following formula. % Relative area in ZP=(area of zona pellucida in each experiment/area of zona pellucida at 0 mM)×100

[5] = Experimental: Mouse fresh unfertilized ovums in which cumulus cells had been removed prepared according to the above-described “1. Preparation of oocyte” were prepared, then, 10 μl of an HTF culture medium containing glutathione at various concentrations (5, 10, 25, 50, 100, 200 and 300 mM) was dropped onto the bottom of a petri dish, and 20 ovums were inserted into this, and the time until elimination of zona pellucida was measured.
[6] = test system: protein thiol in zona pellucida; conditions: glutathione 0.25 to 2.0 mM, 37° C., 1 hour; Alexa Fluor 488 C5-maleimide
Experimental: Mouse fresh unfertilized ovums in which cumulus cells had been removed prepared according to the above-described “1. Preparation of oocyte” were prepared, then, 100 μl of an HTF culture medium containing glutathione at various concentrations (0, 0.25, 0.5, 0.75, 1.0, 1.25, 1.5 and 2.0 mM) was dropped onto the bottom of a petri dish, and 50 embryos were inserted into this, and treated at 37° C. for 1 hour. Thereafter, a protein thiol in zona pellucida was detected by using a thiol-reactive fluorescent dye (Alexa Fluor 488 C5-maleimide).

[7] = test system: mouse embryo in the early stages of development (8-cell stage embryo); conditions: glutathione 100 mM, 20° C., 90 seconds
Source text: The zona pellucida of a mouse embryo in the early stages of development (8-cell stage embryo) used for production of a genetically modified mouse was eliminated.

[8] = freeze-thawed ovums, zona pellucida eliminated with 100 mM glutathione

For `N[C@@H](CCC(=O)N[C@@H](CS)C(=O)NCC(=O)O)C(=O)O` [glutathione, reduced glutathione], the “effect of treating unfertilized ovums on fertilization rate” value ([1]; glutathione 1 mM in IVF medium) was “remarkable improvement in fertilization rate”, the “number of 2-cell stage embryo(%)” value ([1]; glutathione + (1 mM), IVF glutathione −) was 15% and the “number of 2-cell stage embryo” value ([1]; glutathione + (1 mM), IVF glutathione −, 344 oocytes) was 53. For the same molecule, the “number of 2-cell stage embryo(%)” value ([1]; glutathione +, IVF glutathione +) was 38%, the “number of 2-cell stage embryo” value ([1]; glutathione +, IVF glutathione +, 371 oocytes) was 140 and the “number of 2-cell stage embryo(%)” value ([1]; glutathione −, IVF glutathione + (1 mM)) was 36%. The “number of 2-cell stage embryo” value ([1]; glutathione −, IVF glutathione + (1 mM), 381 oocytes) was 136, the “effect of sperm pre-incubation on fertilization rate” value ([1]; sperms pre-incubated with 1 mM glutathione or 0.75 mM MBCD, 37° C., 30 minutes) was “improvement in fertilization rate was not observed” and the offspring development rate [2] was 53.8%. For the same molecule, the “offspring development rate (offspring/transplanted embryos)” value [2] was 43/80, the fertilization rate [3, 8] was 25% and the “fertilization rate (fertilized/total)” value [3, 8] was 125/492. The “condition of zona pellucida of freeze-thawed unfertilized ovum” value ([3]; glutathione 100 mM, 20° C., 90 seconds) was “the zona pellucida of a freeze-thawed unfertilized ovum was eliminated”, the “glutathione concentration at which swelling of zona pellucida was recognized remarkably” value [4] was at least 2 mM and the “swelling of zona pellucida” value ([4]; HTF with glutathione at various concentration) was “swelling of zona pellucida was confirmed depending on the glutathione concentration”. For the same molecule, the pH ([5]; HTF culture medium with glutathione 5 mM) was 7.3, the pH ([5]; HTF culture medium with glutathione 10 mM) was 7.4 and the pH ([5]; HTF culture medium with glutathione 25 mM) was 6.1. The pH ([5]; HTF culture medium with glutathione 50 mM) was 4.0, the pH ([5]; HTF culture medium with glutathione 100 mM) was 3.5 and the pH ([5]; HTF culture medium with glutathione 200 mM) was 3.1. The pH ([5]; HTF culture medium with glutathione 300 mM) was 3.1, the “fluorescent intensity in zona pellucida (free thiol group)” value [6] was “the fluorescent intensity in zona pellucida increased depending on the concentration of glutathione” and the “elimination of zona pellucida of 8-cell stage embryo” value [7] was “elimination of zona pellucida from a 8-cell stage embryo”.

Source: patent US9453242B2, “Method and culture medium for preparing mammalian ovum or embryo in which zona pellucida has been thinned or eliminated, and method for fertilization using mammalian ovum prepared by same method” (NATIONAL UNIVERISTY CORPORATION KUMAMOTO UNIVERSITY, priority 2010, dated 2016)
